{"source": "patent US20240016788A1", "about": "“PHARMACEUTICAL COMPOSITION FOR PREVENTING OR TREATING DIABETIC AND POSTMENOPAUSAL OSTEOPOROSIS, CONTAINING ADIPORON” (PnP Biopharm Co., Ltd., priority 2020, published 2024)", "format_in_all_cases": "in vivo", "key": {"[1]": {"tested_on": "ovariectomized C57BL/6 mice", "assay": "Western blot of bone tissue, ovariectomized mice", "conditions": "for Decreased expression of adiponectin-receptor 1/2 (western blot): 6 weeks", "experimental": "7 weeks after ovariectomization or sham surgery of 7-week-old C57BL/6 mice, normal feed group (adiporon non-administered group; control group) administration group, 2.5 mg/kg day or 25 mg/kg day, respectively Feed comprising adiporon was consumed for 6 weeks from 14 weeks of age. Body weight was measured every week during the experiment period, and the experiment was conducted after 6 weeks of administration.\n(§1) Protein was extracted using Pro-Prep Protein Extraction Solution (Intron Biotechnology, Gyeonggi-Do, Korea), and SDS-PAGE (sodium dodecyl sulfate-polyacrylamide gel electrophoresis) was performed. The separated protein was transferred to a nitrocellulose membrane (Amersham Co., Buckinghamshire, England) and treated with Tris buffered saline (in TBS-T: 0.1% Tween-20 in Tris buffer saline, pH 7.5) containing 3% skim milk. After blocking for an hour, the blots were reacted in adiponectin receptor 1/2, total AMPK, phospho-Thr172AMPK, PGC-1α, Nrf-2, SOD1/2, NQO1, HO-1, NOX4, NF-κB and β-actin primary antibody solution, washing, reacting with a secondary antibody against each primary antibody, and then photosensitizing through ECL (Pierce, Rockford IL) to confirm the band. The expression level of each protein was normalized according to β-actin."}, "[2]": {"tested_on": "type 2 diabetic db/db mice", "assay": "Immunofluorescence staining and western blot of bone tissue, db/db mice", "conditions": "adiporon 30 mg/kg/day, 4 weeks", "experimental": "A leptin receptor-defective type 2 diabetic animal model (db/db mice) and a normal control group (db/m mice) were used, and the experiment was performed by dividing into 4 groups as follows: non-diabetic control group (dm cont, n=8), non-diabetic adiporon treatment group (dm+AdipoR, n=8), diabetic control group (db cont, n=8) and diabetic adiporon treatment group (db+AdipoR, n=8).\nThe control group was fed a normal diet, and the adiporon treatment group was fed a diet comprising adiporon (30 mg/kg/day) for 4 weeks from 16 weeks of age. During the experiment, body weight was measured every week, fasting blood glucose was measured using an Accu-Chek meter (Roche Diagnostics, St. Louis, MO) every 2 weeks after blood was collected from the tail vein, and glycated hemoglobin (HbA1c) was measured every 4 weeks using a […] automatic analyzer (Bayer healthcare LLC, IN) after blood was collected from the tail vein. The temperature and humidity of the breeding room were maintained at 20˜25° C. and 50˜60%, respectively, and the lights were turned on and off at 12-hour intervals.\nAfter removing tissues of the femur and L5 lumbar vertebrae, some of them were fixed in 10% formalin for immunostaining and decalcified. Thereafter, after neutralization with 0.5M Phosphate buffer (pH 7.4), washing, and embedding in paraffin. Tissue sections were cut to a thickness of 5 μm, and hematoxylin and eosin staining (H&E staining), trichrome staining, and Safranin O staining were performed. In bone tissue, double immunofluorescence staining method was performed using anti-adiponectin receptor 1/2 antibody, anti-perilipin-1 antibody, anti-RANKL antibody, anti-TNF-α antibody, and ApopTag Fluorescein In Situ Apoptosis Detection Kit (Chemicon International, Temecula, CA) and expression was observed using a confocal microscope.\nas §1"}, "[3]": {"tested_on": "ovariectomized C57BL/6 mice", "assay": "Micro-CT of ilium (femur) and lumbar vertebra 5, ovariectomized mice", "conditions": "6 weeks", "experimental": "7 weeks after ovariectomization or sham surgery of 7-week-old C57BL/6 mice, normal feed group (adiporon non-administered group; control group) administration group, 2.5 mg/kg day or 25 mg/kg day, respectively Feed comprising adiporon was consumed for 6 weeks from 14 weeks of age. Body weight was measured every week during the experiment period, and the experiment was conducted after 6 weeks of administration. The imaging was performed with micro-CT (Skyscan 1172, Belgium), the tube voltage was 60 kV, the tube current was 167 uA, 0.5 mm aluminum filtration was used, and the pixel size was 5.9 μm. For the shooting angle, a 2-dimensional image was reconstructed with Nrecon Reconstruction (Skyscan, Belgium). For 3D image analysis, CTAn (Skyscan, Belgium) was used, images were obtained by rotating 360°, and exposure time was 440 ms. A total of 7 types of indicators were used in this invention. BMD (bone mineral density, bone density) was measured based on phantoms of 0.25 g/cm^3 and 0.75 g/cm^3. BV/TV (Bone volume/Total volume, percent bone volume, %) is the ratio of voxels representing the solid region out of the total voxels present in the binarized and surfaced volume of interest, and it means the ratio occupied by bone trabeculae within the volume of interest, and i.s (Interception surfaces, mm2) means the generation of new bone. i.s (Interception surfaces, mm^2) means the creation of new bone. BS/BV (Bone surface/Bone volume, bone specific surface, mm^−1) is the ratio of the voxel surface area to the number of voxels in the binarized solid region within the volume of interest and it means the ratio of the surface area of the trabecular bone to the volume of the trabecular bone. The lower the value, the higher the bone strength. Tb.Th (trabecular thickness, mm) is obtained by averaging the diameters of these spheres, after placing a sphere comprising the corresponding voxel for each voxel representing the solid region within the volume of interest so that the size of the sphere is the largest that includes only the solid region and it means the average thickness of the trabecular bone. After making it possible, it is obtained by averaging the diameters of these spheres, which means the average thickness of the trabecular bone. In the same way, using Tb.Sp (trabecular separation, mm), the average length between trabecular lines and Tb.N (trabecular number, mm^−1) were used to obtain the average number of trabecular lines."}, "[4]": {"conditions": "ilium (femur), adiporon 2.5 or 25 mg/kg day, dose not distinguished"}, "[5]": {"conditions": "vertebrae (lumbar vertebrae 5), adiporon 2.5 mg/kg day"}, "[6]": {"conditions": "vertebrae (lumbar vertebrae 5), adiporon 25 mg/kg day"}, "[7]": {"conditions": "vertebrae (lumbar vertebrae 5), adiporon 2.5 or 25 mg/kg day, dose not distinguished"}}, "data": [{"compound": "Cl.O=C(COc1ccc(C(=O)c2ccccc2)cc1)NC1CCN(Cc2ccccc2)CC1", "note": "[adiporon]", "values": [{"measurement": "Decreased expression of adiponectin-receptor 1/2 (western blot)", "setting": "[1]; ilium (femur), adiporon 2.5 mg/kg day", "result": "restored"}, {"measurement": "Decreased expression of adiponectin-receptor 1/2 (western blot)", "setting": "[1]; ilium (femur), adiporon 25 mg/kg day", "result": "restored"}, {"measurement": "Activation of adiponectin-receptor 1-AMPK", "setting": "[1]; [4]", "result": "increased"}, {"measurement": "Expression of PGC-1α", "setting": "[1]; [4]", "result": "increased"}, {"measurement": "Expression of adiponectin-receptor 2-PPARα", "setting": "[1]; [4]", "result": "increased"}, {"measurement": "Decreased expression of adiponectin-receptor 1/2 (western blot)", "setting": "[1]; [5]", "result": "restored"}, {"measurement": "Decreased expression of adiponectin-receptor 1/2 (western blot)", "setting": "[1]; [6]", "result": "restored"}, {"measurement": "Activation of adiponectin-receptor 1-AMPK", "setting": "[1]; [7]", "result": "increased"}, {"measurement": "Expression of PGC1α", "setting": "[1]; [7]", "result": "increased"}, {"measurement": "Expression of adiponectin-receptor 2-PPARα", "setting": "[1]; [7]", "result": "increased"}, {"measurement": "Activation of adiponectin-receptor 1-AMPK", "setting": "[2]; ilium (femur), db/db mice", "result": "increased"}, {"measurement": "Decreased expression of adiponectin-receptor 1/2 (double immunofluorescence staining)", "setting": "[2]; ilium (femur), db/db mice", "result": "restored"}, {"measurement": "Expression of PGC1α", "setting": "[2]; ilium (femur), db/db mice", "result": "increased"}, {"measurement": "Expression of adiponectin-receptor 2-PPARα", "setting": "[2]; ilium (femur), db/db mice", "result": "increased"}, {"measurement": "Expression of antioxidant enzymes (Nrf2, NQO1, HO-1, SOD1, SOD2)", "setting": "[2]; ilium (femur), db/db mice", "result": "normalized"}, {"measurement": "Expression of oxidative stress markers (NOX4, NFkB)", "setting": "[2]; ilium (femur), db/db mice", "result": "normalized"}, {"measurement": "Increase in apoptosis (TUNEL staining-positive)", "setting": "[2]; ilium (femur), db/db mice", "result": "restored"}, {"measurement": "Increase in inflammatory response (TNF-α)", "setting": "[2]; ilium (femur), db/db mice", "result": "restored"}, {"measurement": "Increase of adipocytes (perilipin-1 immunofluorescent staining)", "setting": "[2]; ilium (femur), db/db mice", "result": "restored"}, {"measurement": "Increased expression of RANKL", "setting": "[2]; ilium (femur), db/db mice", "result": "restored"}, {"measurement": "Activation of adiponectin-receptor 1-AMPK", "setting": "[2]; lumbar vertebrae 5, db/db mice", "result": "increased"}, {"measurement": "Decreased expression of adiponectin-receptor 1/2 (double immunofluorescence staining)", "setting": "[2]; lumbar vertebrae 5, db/db mice", "result": "reversed"}, {"measurement": "Expression of PGC1α", "setting": "[2]; lumbar vertebrae 5, db/db mice", "result": "increased"}, {"measurement": "Expression of adiponectin-receptor 2-PPARα", "setting": "[2]; lumbar vertebrae 5, db/db mice", "result": "increased"}, {"measurement": "Expression of antioxidant enzymes (Nrf2, NQO1, HO-1, SOD1, SOD2)", "setting": "[2]; lumbar vertebrae 5, db/db mice", "result": "normalized"}, {"measurement": "Expression of oxidative stress markers (NOX4, NFkB)", "setting": "[2]; lumbar vertebrae 5, db/db mice", "result": "normalized"}, {"measurement": "Increase in apoptosis (TUNEL staining-positive)", "setting": "[2]; lumbar vertebrae 5, db/db mice", "result": "restored"}, {"measurement": "Increase in inflammatory response (TNF-α)", "setting": "[2]; lumbar vertebrae 5, db/db mice", "result": "restored"}, {"measurement": "Increase of adipocytes (perilipin-1 immunofluorescent staining)", "setting": "[2]; lumbar vertebrae 5, db/db mice", "result": "restored"}, {"measurement": "Increased expression of RANKL", "setting": "[2]; lumbar vertebrae 5, db/db mice", "result": "restored"}, {"measurement": "Bone mineral density indicator (micro-CT)", "setting": "[3]; ilium, adiporon 2.5 mg/kg day", "result": "increased and improved"}, {"measurement": "Bone surface indicator (micro-CT)", "setting": "[3]; ilium, adiporon 2.5 mg/kg day", "result": "increased and improved"}, {"measurement": "Bone volume indicator (micro-CT)", "setting": "[3]; ilium, adiporon 2.5 mg/kg day", "result": "increased and improved"}, {"measurement": "Trabecular number indicator (micro-CT)", "setting": "[3]; ilium, adiporon 2.5 mg/kg day", "result": "increased and improved"}, {"measurement": "Trabecular thickness indicator (micro-CT)", "setting": "[3]; ilium, adiporon 2.5 mg/kg day", "result": "increased and improved"}, {"measurement": "Bone mineral density indicator (micro-CT)", "setting": "[3]; ilium, adiporon 25 mg/kg day", "result": "increased and improved"}, {"measurement": "Bone surface indicator (micro-CT)", "setting": "[3]; ilium, adiporon 25 mg/kg day", "result": "increased and improved"}, {"measurement": "Bone volume indicator (micro-CT)", "setting": "[3]; ilium, adiporon 25 mg/kg day", "result": "increased and improved"}, {"measurement": "Trabecular number indicator (micro-CT)", "setting": "[3]; ilium, adiporon 25 mg/kg day", "result": "increased and improved"}, {"measurement": "Trabecular thickness indicator (micro-CT)", "setting": "[3]; ilium, adiporon 25 mg/kg day", "result": "increased and improved"}, {"measurement": "Bone mineral density indicator (micro-CT)", "setting": "[3]; [5]", "result": "increased and improved"}, {"measurement": "Bone surface indicator (micro-CT)", "setting": "[3]; [5]", "result": "increased and improved"}, {"measurement": "Bone volume indicator (micro-CT)", "setting": "[3]; [5]", "result": "increased and improved"}, {"measurement": "Trabecular number indicator (micro-CT)", "setting": "[3]; [5]", "result": "increased and improved"}, {"measurement": "Trabecular thickness indicator (micro-CT)", "setting": "[3]; [5]", "result": "increased and improved"}, {"measurement": "Bone mineral density indicator (micro-CT)", "setting": "[3]; [6]", "result": "increased and improved"}, {"measurement": "Bone surface indicator (micro-CT)", "setting": "[3]; [6]", "result": "increased and improved"}, {"measurement": "Bone volume indicator (micro-CT)", "setting": "[3]; [6]", "result": "increased and improved"}, {"measurement": "Trabecular number indicator (micro-CT)", "setting": "[3]; [6]", "result": "increased and improved"}, {"measurement": "Trabecular thickness indicator (micro-CT)", "setting": "[3]; [6]", "result": "increased and improved"}]}]}
